Measured values: PubChem BioAssay AID248 (DTP/NCI, 2004)
“And” between values parts separate entries of the source, which are not always exact repeats. Equal values may be shown once. Inconclusive results and toxic doses are left out.

Test system: L1210 leukemia ip in BDF1 mice, survival T/C
Assay: NCI In Vivo Anticancer Drug Screen. Data for tumor model L1210 Leukemia (intraperitoneal) in B6D2F1 (BDF1) mice
Settings: endpoint: mean survival time, higher = longer survival
Method in brief: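 In this screen, tumor-bearing mice given compound are compared to those given vehicle, and their survival values are reported as a treated-to-control quotient.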

[1] = dose: 100.0 mg/kg/injection, schedule: Q04DX002 (ip), vehicle: Klucel (hydroxypropylcellulose) (HPC)
[2] = dose: 200.0 mg/kg/injection, schedule: Q04DX002 (ip), vehicle: Klucel (hydroxypropylcellulose) (HPC)
[3] = dose: 100.0 mg/kg/injection, schedule: Q01DX001 (ip), vehicle: carboxymethylcellulose (CMC)
[4] = dose: 200.0 mg/kg/injection, schedule: Q01DX001 (ip), vehicle: carboxymethylcellulose (CMC)
[5] = dose: 400.0 mg/kg/injection, schedule: Q01DX001 (ip), vehicle: carboxymethylcellulose (CMC)
[6] = dose: 100.0 mg/kg/injection, schedule: Q04DX003 (ip), vehicle: Klucel (hydroxypropylcellulose) (HPC)
[7] = dose: 200.0 mg/kg/injection, schedule: Q04DX003 (ip), vehicle: Klucel (hydroxypropylcellulose) (HPC)
[8] = dose: 400.0 mg/kg/injection, schedule: Q04DX003 (ip), vehicle: Klucel (hydroxypropylcellulose) (HPC)
[9] = dose: 400.0 mg/kg/injection, schedule: Q04DX002 (ip), vehicle: saline with Tween-80
[10] = dose: 100.0 mg/kg/injection, schedule: Q01DX009 (ip), vehicle: saline with Tween-80
[11] = dose: 200.0 mg/kg/injection, schedule: Q01DX009 (ip), vehicle: saline with Tween-80
[12] = dose: 100.0 mg/kg/injection, schedule: Q01DX001 (ip), vehicle: Klucel (hydroxypropylcellulose) (HPC)

COC(=O)C1OCOC2C(COS(=O)(=O)c3ccc(C)cc3)OCOC12 (stereo not given)
T/C (dose: 50.0 mg/kg/injection, schedule: Q04DX002 (ip), vehicle: Klucel (hydroxypropylcellulose) (HPC)): 100 % of control
T/C [1]: 98 % of control and 111 % of control
T/C [2]: 95 % of control and 101 % of control
T/C (dose: 400.0 mg/kg/injection, schedule: Q04DX002 (ip), vehicle: Klucel (hydroxypropylcellulose) (HPC)): 101 % of control

COc1cc(C=Nc2cccc(Cl)c2)ccc1N(CCCl)CCCl
T/C (dose: 12.5 mg/kg/injection, schedule: Q01DX Z (ip), vehicle: carboxymethylcellulose (CMC)): 122 % of control
T/C (dose: 25.0 mg/kg/injection, schedule: Q01DX Z (ip), vehicle: carboxymethylcellulose (CMC)): 120 % of control
T/C (dose: 35.0 mg/kg/injection, schedule: Q01DX015 (ip), vehicle: carboxymethylcellulose (CMC)): 87 % of control

Cl[CH2][Sn]([c]1ccccc1)([c]1ccccc1)[c]1ccccc1
T/C (dose: 6.25 mg/kg/injection, schedule: Q01DX009 (ip), vehicle: saline with Tween-80): 113 % of control
T/C (dose: 6.25 mg/kg/injection, schedule: Q01DX009 (ip), vehicle: saline): 93 % of control
T/C (dose: 12.5 mg/kg/injection, schedule: Q01DX009 (ip), vehicle: saline with Tween-80): 106 % of control
T/C (dose: 12.5 mg/kg/injection, schedule: Q01DX009 (ip), vehicle: saline): 101 % of control
T/C (dose: 25.0 mg/kg/injection, schedule: Q01DX009 (ip), vehicle: saline with Tween-80): 101 % of control

COc1ccccc1CN1CCCN(Cc2ccccc2OC)C1c1c(O)ccc2ccccc12
T/C [3]: 91 % of control
T/C [4]: 91 % of control
T/C [5]: 91 % of control

CCc1nnc2cc(C)ccn12
T/C (dose: 100.0 mg/kg/injection, schedule: Q01DX001 (ip), vehicle: other): 98 % of control
T/C (dose: 100.0 mg/kg/injection, schedule: Q04DX003 (ip), vehicle: other): 98 % of control
T/C (dose: 200.0 mg/kg/injection, schedule: Q01DX001 (ip), vehicle: other): 107 % of control
T/C (dose: 200.0 mg/kg/injection, schedule: Q04DX003 (ip), vehicle: other): 98 % of control
T/C (dose: 400.0 mg/kg/injection, schedule: Q01DX001 (ip), vehicle: other): 107 % of control

O=C(O)/C(F)=C/c1ccccc1
T/C (dose: 50.0 mg/kg/injection, schedule: Q01DX001 (ip), vehicle: carboxymethylcellulose (CMC)): 111 % of control
T/C [3]: 103 % of control

Cc1cc(C(C)C)cc(C(C)C)c1
T/C (dose: 100.0 mg/kg/injection, schedule: Q01DX009 (ip), vehicle: Klucel (hydroxypropylcellulose) (HPC)): 96 % of control
T/C [6]: 94 % of control
T/C (dose: 200.0 mg/kg/injection, schedule: Q01DX009 (ip), vehicle: Klucel (hydroxypropylcellulose) (HPC)): 95 % of control
T/C [7]: 102 % of control
T/C [8]: 94 % of control

C[Si](C)(C)c1ccc(-c2ccccc2)cc1
T/C (dose: 25.6 mg/kg/injection, schedule: Q04DX002 (ip), vehicle: saline with Tween-80): 90 % of control
T/C (dose: 64.0 mg/kg/injection, schedule: Q04DX002 (ip), vehicle: saline with Tween-80): 90 % of control
T/C (dose: 160.0 mg/kg/injection, schedule: Q04DX002 (ip), vehicle: saline with Tween-80): 97 % of control
T/C [9]: 101 % of control

c1ccc([P+](CC[P+](c2ccccc2)(c2ccccc2)c2ccccc2)(c2ccccc2)c2ccccc2)cc1
T/C (dose: 2.5 mg/kg/injection, schedule: Q04DX003 (ip), vehicle: saline): 96 % of control
T/C (dose: 5.0 mg/kg/injection, schedule: Q01DX009 (ip), vehicle: saline): 96 % of control
T/C (dose: 5.0 mg/kg/injection, schedule: Q04DX003 (ip), vehicle: saline): 98 % of control
T/C (dose: 10.0 mg/kg/injection, schedule: Q01DX009 (ip), vehicle: saline): 96 % of control
T/C (dose: 10.0 mg/kg/injection, schedule: Q04DX003 (ip), vehicle: saline): 95 % of control and 98 % of control
T/C (dose: 20.0 mg/kg/injection, schedule: Q01DX009 (ip), vehicle: saline): 104 % of control

CC(=O)Nc1cc([N+](=O)[O-])cc(C)c1O
T/C [10]: 97 % of control
T/C [11]: 89 % of control

COc1cc(OC)c(OCc2ccccc2)c(OC)c1
T/C [3]: 96 % of control
T/C [4]: 94 % of control
T/C [5]: 96 % of control

CCCCCCCCCCCCCCCC[N+]1(CCCC)CCOCC1
T/C [6]: 86 % of control
T/C [7]: 101 % of control

O=NN(CCCl)C(=O)NC1CCC(CCl)CC1 (stereo not given)
T/C (dose: 8.0 mg/kg/injection, schedule: Q01DX001 (ip), vehicle: saline with Tween-80): 114 % of control
T/C (dose: 12.0 mg/kg/injection, schedule: Q01DX001 (ip), vehicle: saline with Tween-80): 181 % of control
T/C (dose: 18.0 mg/kg/injection, schedule: Q01DX001 (ip), vehicle: saline with Tween-80): 183 % of control
T/C (dose: 26.0 mg/kg/injection, schedule: Q01DX001 (ip), vehicle: saline with Tween-80): 320 % of control
T/C (dose: 40.0 mg/kg/injection, schedule: Q01DX001 (ip), vehicle: saline with Tween-80): 310 % of control
T/C (dose: 60.0 mg/kg/injection, schedule: Q01DX001 (ip), vehicle: saline with Tween-80): 372 % of control
T/C (dose: 90.0 mg/kg/injection, schedule: Q01DX001 (ip), vehicle: saline with Tween-80): 297 % of control
T/C (dose: 200.0 mg/kg/injection, schedule: Q01DX001 (ip), vehicle: saline with Tween-80): 187 % of control

CC(=O)Nc1c2ccccc2nc2ccccc12
T/C (dose: 100.0 mg/kg/injection, schedule: Q04DX002 (ip), vehicle: saline with Tween-80): 90 % of control
T/C (dose: 200.0 mg/kg/injection, schedule: Q04DX002 (ip), vehicle: saline with Tween-80): 97 % of control
T/C [9]: 90 % of control

O=C(CCl)Nc1ccccc1
T/C [1]: 89 % of control
T/C [2]: 92 % of control

Nc1ncc(CO)c(N)n1
T/C (dose: 25.0 mg/kg/injection, schedule: Q01DX001 (ip), vehicle: Klucel (hydroxypropylcellulose) (HPC)): 100 % of control
T/C (dose: 50.0 mg/kg/injection, schedule: Q01DX001 (ip), vehicle: Klucel (hydroxypropylcellulose) (HPC)): 98 % of control
T/C [12]: 98 % of control and 100 % of control

CS(=O)CCNC(=O)NS(=O)(=O)c1ccc(Cl)cc1 (stereo not given)
T/C (dose: 100.0 mg/kg/injection, schedule: Q04DX003 (ip), vehicle: saline): 97 % of control
T/C (dose: 200.0 mg/kg/injection, schedule: Q04DX003 (ip), vehicle: saline): 98 % of control
T/C (dose: 400.0 mg/kg/injection, schedule: Q04DX003 (ip), vehicle: saline): 108 % of control

CC1CCC(C(O)(C(=O)O)C2CCC(C)CC2)CC1 (stereo not given)
T/C (dose: 75.0 mg/kg/injection, schedule: Q01DX001 (ip), vehicle: other): 104 % of control
T/C (dose: 150.0 mg/kg/injection, schedule: Q01DX001 (ip), vehicle: other): 104 % of control

CC(=O)NC1C(O)OC(COC(c2ccccc2)(c2ccccc2)c2ccccc2)C(O)C1O (stereo not given)
T/C (dose: 100.0 mg/kg/injection, schedule: Q01DX001 (ip), vehicle: saline): 91 % of control
T/C (dose: 200.0 mg/kg/injection, schedule: Q01DX001 (ip), vehicle: saline): 93 % of control
T/C (dose: 400.0 mg/kg/injection, schedule: Q01DX001 (ip), vehicle: saline): 104 % of control

COc1ccc(OC(=O)OCc2ccc(OC)c(OC)c2)cc1
T/C (dose: 100.0 mg/kg/injection, schedule: Q04DX003 (ip), vehicle: saline with Tween-80): 102 % of control
T/C (dose: 200.0 mg/kg/injection, schedule: Q04DX003 (ip), vehicle: saline with Tween-80): 96 % of control
T/C (dose: 400.0 mg/kg/injection, schedule: Q04DX003 (ip), vehicle: saline with Tween-80): 96 % of control

CC(=O)NC(C)(SC(C)=O)C(=O)O (stereo not given)
T/C [12]: 94 % of control
T/C (dose: 200.0 mg/kg/injection, schedule: Q01DX001 (ip), vehicle: Klucel (hydroxypropylcellulose) (HPC)): 95 % of control
T/C (dose: 400.0 mg/kg/injection, schedule: Q01DX001 (ip), vehicle: Klucel (hydroxypropylcellulose) (HPC)): 94 % of control

CC1(C)CCC2(C)CC=C3OC(=O)CCC3(C)C2C1 (stereo not given)
T/C [10]: 92 % of control
T/C [6]: 102 % of control
T/C [11]: 89 % of control
T/C [7]: 98 % of control
T/C (dose: 400.0 mg/kg/injection, schedule: Q01DX009 (ip), vehicle: saline with Tween-80): 94 % of control
T/C [8]: 94 % of control
